Source: publication PMC5555576, “Selective small-chemical inhibitors of protein arginine methyltransferase 5 with anti-lung cancer activity” (PLoS ONE, 2017)

Tested on: A549 lung tumor xenografts
Assay: Orthotopic lung tumor xenograft model
Type: in vivo, nude mice
Settings: 100 mg/kg oral gavage daily
Procedure: Six-week old nude mice were purchased from the National Cancer Institute and maintained in a barred animal facility. Cell injection into the mouse lung was performed as described previously. Mice were treated with vehicle [0.1 ml, 0.5% (w/v) carboxymethycellulose plus 0.5% Tween 80] by oral gavage or the compound dissolved in the vehicle (0.1 ml, 100 mg/kg) for 21 days. The lungs of the mice were then removed, fixed with formaldehyde and embedded in paraffin. Paraffin-embedded lung tissue sections (4 μm) were stained with H&E and evaluated for tumors. The tumor areas in lungs were quantified using the ImageJ software program (NIH).
We used the orthotopic lung tumor model to determine effects of the compound C9a on growth of lung cancer xenografts. A549 cells were injected into the lung of nude mouse as previously reported by us. Mice were randomized and divided into two groups: (a) control mice (n = 5): administration of the vehicle [0.5% (w/v) carboxymethycellulose plus 0.5% Tween 80] by oral gavage daily; (b) treated mice (n = 10): administration of the compound C9a in the vehicle at the dosage of 100 mg/kg by oral gavage daily. […]
Fig 9 The compound C9a inhibited growth of lung tumor xenografts in nude mice. […] Histones were isolated from tumors and analyzed by SDS-PAGE stained with Commassie blue R250 (bottom) or by Western blot with anti-symmetric dimethyl arginine antibody (SYM10) (top).

Nc1cccc(Nc2ncnc3c2cnn3Cc2ccccc2)c1 [Compound C9a]
average tumor size (tumor area mean) in control mice relative to treated mice (3 weeks): 7.2 fold
effect on growth of mice (body weight) (21 days): retarded growth of mice
